Where “and” joins values, the source holds several entries; their conditions need not be identical. Equal values may be shown once.
Legend:
[1] = test system: L-gulono-gamma-lactone dehydrogenase (GLDH); assay: Effect of metal ions on GLDH enzyme activity; type: biochemical, Gluconobacter oxydans DSM 4025
Experimental: The enzyme assay was performed at 25° C. by measuring the decrease of absorbance at 600 nm of DCIP spectrophotometrically. One unit of enzyme activity was defined as the amount of enzyme which catalyzed the reduction of 1 μmole of DCIP per minute. […] A reference cuvette contained all components except L-gulono gamma-lactone. The reaction was started by the addition of L-gulono-gamma-lactone. Enzyme activity was measured as the initial reduction rate of DCIP.
Using the same enzyme assay method as described under 1), the effect of various metal ions on the enzyme activity was examined.

[2] = test system: L-gulono-gamma-lactone dehydrogenase (GLDH); assay: Substrate specificity of GLDH (DCIP reduction enzyme assay); type: biochemical, Gluconobacter oxydans DSM 4025; conditions: substrate 400 mM; for Relative activity (%): 25° C., DCIP/PMS, L-gulono-gamma-lactone = 100
Experimental: (§1) The enzyme assay was performed at 25° C. by measuring the decrease of absorbance at 600 nm of DCIP spectrophotometrically. One unit of enzyme activity was defined as the amount of enzyme which catalyzed the reduction of 1 μmole of DCIP per minute. The extinction coefficient of DCIP at pH 7.0 was taken as 14.5 mM^-1. A cuvette with 1 cm light path contained 0.16 mM DCIP, 1.6 mM phenazine methosulfate, 200 mM potassium phosphate buffer, 400 mM L-gulono-gamma-lactone, enzyme solution and water in a final volume of 0.5 ml. A reference cuvette contained all components except L-gulono gamma-lactone. The reaction was started by the addition of L-gulono-gamma-lactone. Enzyme activity was measured as the initial reduction rate of DCIP.
Substrate specificity of the enzyme was determined using the same enzyme assay method as described as above except that the various substrate solutions (400 mM) were used instead of L-gulono-gamma-lactone.

[3] = test system: L-gulono-gamma-lactone dehydrogenase (GLDH); assay: Effect of inhibitors on GLDH enzyme activity; type: biochemical, Gluconobacter oxydans DSM 4025
Experimental: as §1
Using the same enzyme assay method as described above, the effect of various inhibitors on the enzyme activity was examined. No compounds tested gave an inhibitory effect on the GLDH.

[4] = test system: L-gulono-gamma-lactone dehydrogenase (GLDH); assay: Measurement of the Km value (DCIP enzyme assay); type: biochemical, Gluconobacter oxydans DSM 4025
Experimental: as §1
Using the same enzyme assay method as described above, the rate of the oxidizing reaction with varying the concentrations of L-gulono-gamma lactone from 0.18 mM to 90 mM was measured to determine the Km value for L-gulono-gamma-lactone.

[5] = test system: L-gulono-gamma-lactone dehydrogenase (GLDH); conditions: conversion of L-gulono-gamma-lactone to L-ascorbic acid

Row | Compound | Relative activity (%) ([1]; metal 0.19 mM) | Relative activity (%) ([1]; metal 0.38 mM) | Relative activity (%) ([1]; metal 0.89 mM) | also measured
1 | O.O.O.O.O=[N+]([O-])[O-].O=[N+]([O-])[O-].[Ca+2] [Ca(NO3)2.4H2 O] | 100 | 100 | 96 | –
2 | [Ca+2].[Cl-].[Cl-] [CaCl2] | 96 | 104 | 96 | –
3 | O.O.O.O.O.O.[Cl-].[Cl-].[Co+2] [CoCl2.6H2 O] | 102 | 110 | 100 | –
4 | O.O.O.O.O.O.O.O=S(=O)([O-])[O-].[Co+2] [CoSO4.7H2 O] | 96 | 108 | 88 | –
5 | O.O.O.O=[N+]([O-])[O-].O=[N+]([O-])[O-].[Cu+2] [Cu(NO3)2.3H2 O] | 88 | 24 | 0 | –
6 | O.O.[Cl][Cu][Cl] [CuCl2.2H2 O] | 84 | 8 | 0 | –
7 | O.O.O.O.O.O=S(=O)([O-])[O-].[Cu+2] [CuSO4.5H2 O] | 80 | 20 | 0 | –
8 | O=S(=O)([O-])[O-].[Cu+2] [CuSO4] | 92 | 24 | 12 | –
9 | [Cu+2] [Cu^2+] | – | – | – | inhibition of the enzyme by metal ion [1]: strong inhibition
10 | O=C[C@H](O)[C@@H](O)[C@@H](O)[C@H](O)CO [D-Galactose] | – | – | – | Relative activity (%) [2]: 0%
11 | O=C(O)[C@H](O)[C@@H](O)[C@H](O)[C@H](O)CO [D-Gluconic acid] | – | – | – | Relative activity (%) [2]: 0%
12 | O=C1O[C@H](CO)[C@@H](O)[C@H](O)[C@H]1O [D-Glucono-δ-lactone] | – | – | – | Relative activity (%) [2]: 0%
13 | O=C[C@H](O)[C@@H](O)[C@H](O)[C@H](O)CO [D-Glucose] | – | – | – | activity of GLDH on substrate [2]: weakly active; Relative activity (%) [2]: 23.4%
14 | O=C[C@H](O)[C@@H](O)[C@H](O)[C@H](O)C(=O)O [D-Glucuronic acid] | – | – | – | Relative activity (%) [2]: 0%
15 | O=C[C@H](O)[C@H]1OC(=O)[C@@H](O)[C@H]1O [D-Glucurono-r-lactone] | – | – | – | activity of GLDH on substrate [2]: weakly active; Relative activity (%) [2]: 6.38%
16 | O=C[C@@H](O)[C@@H](O)[C@H](O)[C@H](O)CO [D-Mannose] | – | – | – | activity of GLDH on substrate [2]: weakly active; Relative activity (%) [2]: 7.23%
17 | O=C[C@H](O)[C@@H](O)[C@H](O)CO [D-Xylose] | – | – | – | activity of GLDH on substrate [2]: highly active; Relative activity (%) [2]: 110.6%
18 | O=C(O)CN(CCN(CC(=O)O)CC(=O)O)CC(=O)O [EDTA] | – | – | – | Relative activity (%) [3]: 95.2% and 100% and 90.5%
19 | NN [Hydrazine monohydrate] | – | – | – | Relative activity (%) ([3]; inhibitor 1.0 mM): 100%
20 | Cl.NO [Hydroxylamine hydrocloride] | – | – | – | Relative activity (%) ([3]; inhibitor 1.0 mM): 100%; Relative activity (%) ([3]; inhibitor 2.0 mM): 100%
21 | O=C1O[C@H]([C@@H](O)CO)[C@@H](O)[C@@H]1O [L-Galactono-r-lactone, L-galactono-gamma-lactone] | – | – | – | activity of GLDH on substrate [2]: does not use L-galactono-gamma-lactone as a substrate; Relative activity (%) [2]: 0%

Row | Compound | Relative activity (%) ([1]; metal 0.19 mM) | Relative activity (%) ([1]; metal 0.38 mM) | Relative activity (%) ([1]; metal 0.89 mM) | also measured
22 | O=C1O[C@H]([C@@H](O)CO)[C@H](O)[C@@H]1O [L-Gulono-r-lactone, L-gulono-gamma-lactone] | – | – | – | activity of GLDH on substrate [2]: highly active; Relative activity (%) [2]: 100%; Km ([4]; DCIP as the electron acceptor, substrate 0.18 mM to 90 mM, read-out: apparent Michaelis constant (Km)): 34.8 mM; substrate concentration of maximum reaction rate ([4]; substrate varied 0.18 mM to 90 mM): about 71.8 mM
23 | O=C[C@@H](O)[C@@H](O)[C@H](O)[C@@H](O)CO [L-Gulose] | – | – | – | Relative activity (%) [2]: 0%
24 | O.O.O.O.O.O.[Cl-].[Cl-].[Mg+2] [MgCl2.6H2 O] | 96 | 96 | 96 | –
25 | O.O.O.O.O.O.O.O=S(=O)([O-])[O-].[Mg+2] [MgSO4.7H2 O] | 92 | 96 | 92 | –
26 | O.O.O.O.[Cl][Mn][Cl] [MnCl2.4H2 O] | 100 | 0 | 0 | –
27 | [Mn+2] [Mn^2+] | – | – | – | inhibition of the enzyme by metal ion [1]: strong inhibition
28 | O=C(O)CI [Monoiodoacetate] | – | – | – | Relative activity (%) [3]: 104.8% and 100% and 92.9%
29 | CCN1C(=O)C=CC1=O [N-Ethyl-maleimide] | – | – | – | Relative activity (%) ([3]; inhibitor 0.96 mM): 95.2%; Relative activity (%) ([3]; inhibitor 1.89 mM): 100%; Relative activity (%) ([3]; inhibitor 4.46 mM): 100%
30 | O.O.O.O.O.O.O.O=[As]([O-])([O-])O.[Na+].[Na+] [Na2 HAsO4 7H2 O] | – | – | – | Relative activity (%) ([3]; inhibitor 0.96 mM): 95.2%; Relative activity (%) ([3]; inhibitor 1.89 mM): 104.8%; Relative activity (%) ([3]; inhibitor 4.46 mM): 97.6%
31 | O.O.[Na+].[Na+].[O]=[Mo](=[O])([O-])[O-] [Na2 MoO4.2H2 O] | 104 | 96 | 88 | –
32 | O.O.O.O.O.O.O.O=S(=O)([O-])[O-].[Ni+2] [NiSO4.7H2 O] | 96 | 96 | 88 | –
33 | O=C(O)c1cc[c]([Hg][Cl])cc1 [PCMB, p-chloro-mercuribenzoate] | – | – | – | Relative activity (%) ([3]; inhibitor 0.96 mM): 90.5%; Relative activity (%) ([3]; inhibitor 1.89 mM): 102.4%; Relative activity (%) ([3]; inhibitor 4.46 mM): 100%
34 | [N-]=[N+]=[N-] [Sodium azide] | – | – | – | Relative activity (%) ([3]; inhibitor 0.96 mM): 100%; Relative activity (%) ([3]; inhibitor 1.89 mM): 97.6%; Relative activity (%) ([3]; inhibitor 4.46 mM): 97.6%
35 | [F-].[Na+] [Sodium fluoride] | – | – | – | Relative activity (%) ([3]; inhibitor 0.96 mM): 107.1%; Relative activity (%) ([3]; inhibitor 1.89 mM): 114.3%; Relative activity (%) ([3]; inhibitor 4.46 mM): 97.6%
36 | [Cl-].[Cl-].[Zn+2] [ZnCl2] | 88 | 88 | 80 | –
37 | O.O.O.O.O.O.O.O=S(=O)([O-])[O-].[Zn+2] [ZnSO4.7H2 O] | 88 | 88 | 76 | –
38 | O=O [oxygen] | – | – | – | enzyme activity with oxygen as electron acceptor [5]: lack of enzyme catalyzing activity
39 | Fe(SO4)3.xH2 O | 104 | 92 | 76 | –
40 | MnSO4.4-6H2 O | 100 | 0 | 0 | –
41 | TiCl | 88 | 92 | 80 | –

Reference: US5250428A, “L-gulono-gamma-lactone-dehydrogenase for producing vitamin C” (Hoffmann-La Roche Inc., priority 1990, dated 1993)
